± gives the expanded uncertainty stated by the source.
Tests used:
[1] = xn = mol fraction of the nth substance listed; settings: 101 kPa, Liquid; for viscosity: Capillary tube (Ostwald / Ubbelohde) method; for mass density: Vibrating tube method
[2] = refractive index (Na D-line) (dimensionless); xn = mol fraction of the nth substance listed; settings: 101 kPa, Liquid, Standard Abbe refractometry

C1C[C@@H]2[C@H]3CC[C@H](C3)[C@@H]2C1 [exo-tetrahydrodicyclopentadiene] + CCCCC1CCCCC1
Settings | mass density, [1] [kg/m3] | refractive index, [2] | viscosity, [1] [mPa·s]
293.15 K, x1 = 0.1 | 811.06 ± 0.15 | 1.444 ± 0.001 | 1.391 ± 0.011
293.15 K, x1 = 0.1993 | 822.96 ± 0.15 | 1.4478 ± 0.001 | 1.49 ± 0.012
293.15 K, x1 = 0.2997 | 835.42 ± 0.15 | 1.4521 ± 0.001 | 1.602 ± 0.012
293.15 K, x1 = 0.3991 | 848.2 ± 0.15 | 1.4568 ± 0.001 | 1.732 ± 0.013
293.15 K, x1 = 0.5002 | 861.66 ± 0.15 | 1.4613 ± 0.001 | 1.879 ± 0.013
293.15 K, x1 = 0.6005 | 875.49 ± 0.15 | 1.466 ± 0.001 | 2.044 ± 0.014
293.15 K, x1 = 0.7 | 889.72 ± 0.15 | 1.4712 ± 0.001 | 2.234 ± 0.015
293.15 K, x1 = 0.8004 | 904.57 ± 0.15 | 1.4766 ± 0.001 | 2.446 ± 0.016
293.15 K, x1 = 0.8999 | 919.8 ± 0.15 | 1.4818 ± 0.001 | 2.688 ± 0.018
293.15 K, x1 = 1 | 935.72 ± 0.15 | 1.4874 ± 0.001 | 2.992 ± 0.02
298.15 K, x1 = 0.1 | 807.31 ± 0.15 | – | 1.279 ± 0.011
298.15 K, x1 = 0.1993 | 819.19 ± 0.15 | – | 1.367 ± 0.011
298.15 K, x1 = 0.2997 | 831.63 ± 0.15 | – | 1.467 ± 0.012
298.15 K, x1 = 0.3991 | 844.39 ± 0.15 | – | 1.584 ± 0.012
298.15 K, x1 = 0.5002 | 857.83 ± 0.15 | – | 1.715 ± 0.013
298.15 K, x1 = 0.6005 | 871.64 ± 0.15 | – | 1.863 ± 0.013
298.15 K, x1 = 0.7 | 885.86 ± 0.15 | – | 2.032 ± 0.014
298.15 K, x1 = 0.8004 | 900.7 ± 0.15 | – | 2.224 ± 0.015
298.15 K, x1 = 0.8999 | 915.95 ± 0.15 | – | 2.438 ± 0.017
298.15 K, x1 = 1 | 931.84 ± 0.15 | – | 2.71 ± 0.018
303.15 K, x1 = 0.1 | 803.53 ± 0.15 | 1.4393 ± 0.001 | 1.181 ± 0.011
303.15 K, x1 = 0.1993 | 815.39 ± 0.15 | 1.4435 ± 0.001 | 1.261 ± 0.011
303.15 K, x1 = 0.2997 | 827.82 ± 0.15 | 1.448 ± 0.001 | 1.351 ± 0.011
303.15 K, x1 = 0.3991 | 840.57 ± 0.15 | 1.4522 ± 0.001 | 1.456 ± 0.012
303.15 K, x1 = 0.5002 | 853.98 ± 0.15 | 1.457 ± 0.001 | 1.574 ± 0.012
303.15 K, x1 = 0.6005 | 867.78 ± 0.15 | 1.4619 ± 0.001 | 1.707 ± 0.013
303.15 K, x1 = 0.7 | 881.99 ± 0.15 | 1.4669 ± 0.001 | 1.858 ± 0.014
303.15 K, x1 = 0.8004 | 896.81 ± 0.15 | 1.4718 ± 0.001 | 2.031 ± 0.014
303.15 K, x1 = 0.8999 | 912.05 ± 0.15 | 1.4774 ± 0.001 | 2.223 ± 0.015
303.15 K, x1 = 1 | 927.94 ± 0.15 | 1.4831 ± 0.001 | 2.467 ± 0.017
308.15 K, x1 = 0.1 | 799.75 ± 0.15 | – | 1.096 ± 0.01
308.15 K, x1 = 0.1993 | 811.6 ± 0.15 | – | 1.168 ± 0.011
308.15 K, x1 = 0.2997 | 824.01 ± 0.15 | – | 1.249 ± 0.011
308.15 K, x1 = 0.3991 | 836.73 ± 0.15 | – | 1.344 ± 0.011
308.15 K, x1 = 0.5002 | 850.13 ± 0.15 | – | 1.451 ± 0.012
308.15 K, x1 = 0.6005 | 863.92 ± 0.15 | – | 1.571 ± 0.012
308.15 K, x1 = 0.7 | 878.11 ± 0.15 | – | 1.707 ± 0.013
308.15 K, x1 = 0.8004 | 892.92 ± 0.15 | – | 1.862 ± 0.014
308.15 K, x1 = 0.8999 | 908.14 ± 0.15 | – | 2.036 ± 0.015
308.15 K, x1 = 1 | 924.02 ± 0.15 | – | 2.255 ± 0.016
313.15 K, x1 = 0.1 | 795.96 ± 0.15 | 1.435 ± 0.001 | 1.02 ± 0.01
313.15 K, x1 = 0.1993 | 807.79 ± 0.15 | 1.4391 ± 0.001 | 1.085 ± 0.01
313.15 K, x1 = 0.2997 | 820.18 ± 0.15 | 1.4435 ± 0.001 | 1.159 ± 0.011
313.15 K, x1 = 0.3991 | 832.89 ± 0.15 | 1.448 ± 0.001 | 1.245 ± 0.011
313.15 K, x1 = 0.5002 | 846.27 ± 0.15 | 1.4524 ± 0.001 | 1.342 ± 0.011
313.15 K, x1 = 0.6005 | 860.05 ± 0.15 | 1.4575 ± 0.001 | 1.451 ± 0.012
313.15 K, x1 = 0.7 | 874.22 ± 0.15 | 1.4626 ± 0.001 | 1.573 ± 0.012
313.15 K, x1 = 0.8004 | 889.02 ± 0.15 | 1.4677 ± 0.001 | 1.715 ± 0.013
313.15 K, x1 = 0.8999 | 904.23 ± 0.15 | 1.4728 ± 0.001 | 1.872 ± 0.014
313.15 K, x1 = 1 | 920.11 ± 0.15 | 1.4786 ± 0.001 | 2.069 ± 0.015
318.15 K, x1 = 0.1 | 792.17 ± 0.15 | – | 0.952 ± 0.01
318.15 K, x1 = 0.1993 | 803.98 ± 0.15 | – | 1.012 ± 0.01
318.15 K, x1 = 0.2997 | 816.35 ± 0.15 | – | 1.079 ± 0.01
318.15 K, x1 = 0.3991 | 829.04 ± 0.15 | – | 1.157 ± 0.011
318.15 K, x1 = 0.5002 | 842.41 ± 0.15 | – | 1.246 ± 0.011
318.15 K, x1 = 0.6005 | 856.16 ± 0.15 | – | 1.345 ± 0.011
318.15 K, x1 = 0.7 | 870.32 ± 0.15 | – | 1.456 ± 0.012
318.15 K, x1 = 0.8004 | 885.11 ± 0.15 | – | 1.585 ± 0.012
318.15 K, x1 = 0.8999 | 900.32 ± 0.15 | – | 1.727 ± 0.013
318.15 K, x1 = 1 | 916.18 ± 0.15 | – | 1.907 ± 0.014
